Publication PMC4583543, “Development and Validation of a Novel Leishmania donovani Screening Cascade for High-Throughput Screening Using a Novel Axenic Assay with High Predictivity of Leishmanicidal Intracellular Activity” (PLoS Neglected Tropical Diseases, 2015)
Like-named read-outs stand apart in the source and are kept apart here.

Tests used:
THP-1 cells = assay: THP-1 host cell toxicity in the intramacrophage assay; assay type: cell-based, human; conditions: Homo sapiens, THP-1; reference compound panel; mean (standard deviation); host cell toxicity; read-out: THP-1 (potency, pEC50) (converted)
Description: (§1) Compounds were dispensed into 384-well assay plates by acoustic dispensing (LabCyte ECHO). […] Potencies are reported as pEC50 (-LOG(EC50[M])).
(§2) All data was processed using IDBS ActivityBase. […] Potency plates were normalised to DMSO control (0% effect) and 2μM amphotericin B control (100% effect). […] For compounds with low activity and poor definition of the curve top, B was fixed to 100. For the determination of the reference compound panel potency, all experiments were carried out with a minimum of three independent repeats.
(§3) The assay conditions are described previously. Briefly PMA differentiated THP-1 cells were infected overnight with eGFP expressing LdBOB amastigote-like cells at a multiplicity of infection of 5. Next, any remaining free amastigote-like cells are removed and compounds are added. The microscopy-based read-out is done after a four day compound incubation.

[1] = tested on: LdBOB axenic amastigote-like cells; assay: Novel (cidal) axenic amastigote assay, BacTiter-Glo read-out; assay type: cell-based, Leishmania donovani; conditions: for EC50: Leishmania donovani, read-out: Novel (axenic assay potency, pEC50) (converted)
Source text: Leishmania donovani BOB cells (LdBOB) used in this study are a cloned line from strain MHOM/SD/62/1S-CL2 [13]. Cultures were maintained as described previously. Compounds were dispensed into 384-well assay plates by acoustic dispensing (LabCyte ECHO). […] Potencies are reported as pEC50 (-LOG(EC50[M])). All data was processed using IDBS ActivityBase. […] For compounds with low activity and poor definition of the curve top, B was fixed to 100. For the determination of the reference compound panel potency, all experiments were carried out with a minimum of three independent repeats. Test compounds were pre-dispensed into white 384 well plates (Corning). For library screens one compound per well was tested at the indicated final concentration. […] DMSO, zero percent effect control: cells at starting concentration. The zero percent effect control wells are left empty during the course of the assay. […] The assay volume is 25 μl / well. […] Plates were then sealed with clear film and relative luminescence was detected using a plate reader (Victor 3) from Perkin Elmer or PHERAstar FS from BMG LABTECH, with 0.5 s detection time per well).

[2] = tested on: eGFP expressing LdBOB amastigote-like cells in PMA differentiated THP-1 cells; assay: Intramacrophage (intracellular, INMAC) assay; assay type: cell-based, Leishmania donovani; conditions: for EC50: Leishmania donovani, THP-1, 96 h, read-out: Intramacrophage (potency, pEC50) (converted)
Description: as §1, §2, §3

HepG2 cells = assay: HepG2 assay (mammalian counterscreen, resazurin); assay type: cell-based, human; conditions: Homo sapiens, HepG2; reference compound panel; mean (standard deviation); 72 h; read-out: HepG2 (potency, pEC50) (converted)
Description: Compounds were dispensed into 384-well assay plates by acoustic dispensing (LabCyte ECHO). […] Potencies are reported as pEC50 (-LOG(EC50[M])). All data was processed using IDBS ActivityBase. […] For compounds with low activity and poor definition of the curve top, B was fixed to 100. For the determination of the reference compound panel potency, all experiments were carried out with a minimum of three independent repeats. The assay conditions are described previously.

[3] = cited from earlier work
[4] = parameters: method as in PMID 197231; conditions: cited from earlier work
[5] = reference compound panel, mean (standard deviation), minimum three independent repeats, four day incubation

| SMILES | EC50 (THP-1 cells) | EC50 [1] | EC50 [2, 5] | EC50 (HepG2 cells) | potency difference, intracellular assay relative to novel axenic assay ([2]; more active in the intracellular assay) | EC50 [2] | aqueous solubility [3] | activity in words (novel axenic versus intracellular) ([1]; reference compound panel) | stability in serum [4] |
| --- | --- | --- | --- | --- | --- | --- | --- | --- | --- |
| NC[C@@H]1O[C@H](O[C@H]2[C@@H](O)[C@H](O[C@@H]3[C@@H](O)[C@H](N)C[C@H](N)[C@H]3O[C@H]3O[C@H](CO)[C@@H](O)[C@H](O)[C@H]3N)O[C@@H]2CO)[C@H](N)[C@@H](O)[C@@H]1O [Paromomycin] | > 34.7 µM | > 50.1 µM | > 34.7 µM | > 50.1 µM |  |  |  |  |  |
| NCCCC(O)(P(=O)(O)O)P(=O)(O)O [Alendronic acid] | > 34.7 µM | > 50.1 µM | > 34.7 µM | > 50.1 µM |  |  |  |  |  |
| CCCCCCCCCCCCCCCCOP(=O)([O-])OCC[N+](C)(C)C [Miltefosine] | > 34.7 µM | 31.6 µM | 0.794 µM | > 50.1 µM | around ten-fold |  |  |  |  |
| Cc1ccc(C(=O)Nc2ccc(S(=O)(=O)O)c3cc(S(=O)(=O)O)cc(S(=O)(=O)O)c23)cc1NC(=O)c1cccc(NC(=O)Nc2cccc(C(=O)Nc3cc(C(=O)Nc4ccc(S(=O)(=O)O)c5cc(S(=O)(=O)O)cc(S(=O)(=O)O)c45)ccc3C)c2)c1 [Suramin] | > 34.7 µM | > 50.1 µM | > 34.7 µM | > 50.1 µM |  |  |  |  |  |
| CC(C)Cn1cnc2c(N)nc3ccccc3c21 [Imiquimod] | > 34.7 µM | > 50.1 µM |  | > 50.1 µM |  | > 34.7 µM |  |  |  |
| CC1=CC(=O)c2ccccc2C1=O [Menadione] | 33.1 µM | 10.2 µM | > 34.7 µM | 3.47 µM |  |  |  |  |  |
| CCN(CC)C(=S)SSC(=S)N(CC)CC [Disulfiram] | > 34.7 µM | 0.363 µM | > 34.7 µM | 45.7 µM |  |  | poor | only active in the novel axenic assay | unstable in serum |
| CC(C)(C)NC(=O)[C@@H]1CN(Cc2cccnc2)CCN1C[C@@H](O)C[C@@H](Cc1ccccc1)C(=O)N[C@H]1c2ccccc2C[C@H]1O [Indinavir] | > 34.7 µM | > 50.1 µM | > 34.7 µM | > 50.1 µM |  |  |  |  |  |
